Measured values as given in patent publication US20110002897A1, “DIRECTED DIFFERENTIATION OF STEM CELLS” (Burnham Institute for Medical Research, priority 2009, published 2011).
“Also recorded” adds a separate entry of the source.

Assays:
hESCs (H9 cells) = test: Neural tube-like (NTL) structure formation by hESC colonies grown on HS27 fibroblasts; format: cell-based, human; details: for NTL structures observed: MK applied together with FGF-2, or MK replaced by the factor
Description: To confirm that increased MK levels correlate with differentiation, EBs from hESCs and HS27-iPSCs were generated and quantitatively analyzed MK expression. […] To test if exogenously added MK may display neural-inducing activities, hESCs were cultured in the presence of recombinant MK protein using two different assays. First, manually passaged hESCs (H9 cells) were plated on HS27 fibroblasts and grown in the presence of 100 ng/mL MK. […] These NTLs expressed the typical neuroectodermal markers PAX6 and Nestin (FIG. 1d) and, when single NTLs were manually picked under microscopic guidance and attached to laminin-coated dishes, neuronal cells started migrating out from these structures (FIG. 9). […] Second, MK-induced differentiation was investigated under feeder-free conditions. Manually passaged H9-hESCs cells were plated on Matrigel and grown in 100 ng/mL MK for 6 days.
Human ESC lines H1, H9, H14, BG02, HSF-6, and HUES13 were cultured on matrigel (BD) or Geltrex (Invitrogen) in the presence of MEF-CM (DMEM/F12, 20% Knockout Serum Replacement, non-essential amino acids, 2-mercaptoethanol). In some experiments, hESCs and iPSCs were cultured in mTeSR medium (Stem Cell Technologies). Neural cells were grown in N2B27 supplement (Gibco). The following reagents were used: MK (Millipore), FGF-2 (NIH/NCI), BDNF (Peprotech), GDNF (Peprotech), FGF-8 (Peprotech), SHH (Peprotech and R&D Systems), Noggin (Peprotech), IGF-1 (Peprotech), DLL1, DLL4, Jagged1 (R&D), all-trans RA (Sigma), Forskolin (Sigma), A 81-01 (Tocris), Dorsomorphin (Sigma), PNU-74654 (Sigma), Rapamycin (Sigma), LY294002 (Tocris), U0126 (Tocris).
Cells were fixed with 4% paraformaldehyde and stained with following antibodies: anti-mouse OCT-4 (1:200, Santa Cruz, C-10), rabbit Nanog (1:200, Santa Cruz, H-155), mouse TRA 1-81 (1:200, Millipore), alpha-Fetoprotein (1:50, Santa Cruz, AFP-11), goat MK (1:100, R&D Systems), goat SOX17 (1:100, R&D), goat Brachyury (1:100, R&D), PAX6 (1:300, Covance), mouse and rabbit Tuj1 (1:500, Covance), goat OTX2 (1:1000, Neuromics), mouse Nestin (1:400, Millipore), rabbit OLIG2 (1:50, Santa Cruz, H-68), mouse HB9 (1:50, 81.5C10, Developmental Studies Hybridoma Bank), rabbit GFAP (1:1000, DAKO), rabbit and sheep TH (1:500, Pel-Freez), rabbit PTPz (1:50, Santa Cruz), goat ALK (1:50, Santa Cruz). Light-microscopic immunostaining for PAX6 with the DAB method was performed according to the manufacturer (Vector).

ALK 5, 4, 7 = details: Tojo et al. 2005; cited from earlier work
AKT = test: Western blot of AKT phosphorylation at Serine 473 (PI3K pathway); format: cell-based, human; details: 100 ng/mL, 24 hr
Excerpt: (§1) The signal transduction pathway(s) involved in this highly efficient neural conversion was addressed. The PI3K/MAPK pathways were focused on since MK-induced activation of both pathways has been reported (Kadomatsu et al. Cancer Lett. 204:127-143, 2004; Stoica et al. JBC 277:35990-35998, 2002). Since both pathways are already active in undifferentiated hESCs and necessary for their growth (Bendall et al. Nature 448:1015-1021, 2007; Vallier et al. J. Cell. Sci. 118:4495-4509, 2005; Xu et al. Nat. Methods 2:185-190, 2005), cells were exposed to high concentrations (100 ng/mL) of MK, IGF-1, and FGF-2 for 24 hr and phosphorylation levels of AKT and ERK1/2 were compared (FIG. 4a).
Cell lysates were prepared in RIPA buffer containing protease and phosphatase inhibitors (Pierce). 4-12% gradient gels (NuPage) were used with Invitrogen's SureLock Mini-Cell and gel-to-membrane transfer was performed with the XCell Blot Module (Invitrogen). The following primary antibodies were used: goat MK (R&D), mouse and rabbit GAPDH (1:1000, Santa Cruz), p-AKT 5473 and total AKT (1:1000, Cell Signaling Technologies), phospho-ERK1/2 and total ERK1/2 (1:1000, Cell Signaling Technologies). The following secondary antibodies were used: donkey anti-mouse Alexa 680 (Invitrogen), donkey anti-rabbit Alexa 680, donkey anti-rabit 800 (Rockland), donkey anti-mouse 800. […]

ERK1/2 = test: Western blot of phospho-ERK1/2 (MAPK pathway); format: cell-based, human; details: 100 ng/mL, 24 hr
Excerpt: as §1
Cell lysates were prepared in RIPA buffer containing protease and phosphatase inhibitors (Pierce). 4-12% gradient gels (NuPage) were used with Invitrogen's SureLock Mini-Cell and gel-to-membrane transfer was performed with the XCell Blot Module (Invitrogen). The following primary antibodies were used: goat MK (R&D), mouse and rabbit GAPDH (1:1000, Santa Cruz), p-AKT 5473 and total AKT (1:1000, Cell Signaling Technologies), phospho-ERK1/2 and total ERK1/2 (1:1000, Cell Signaling Technologies). The following secondary antibodies were used: donkey anti-mouse Alexa 680 (Invitrogen), donkey anti-rabbit Alexa 680, donkey anti-rabit 800 (Rockland), donkey anti-mouse 800. Western Blots were imaged using the Odyssey Infrared Imaging System (LI-COR).

H9 hESCs = test: Feeder-free neural induction on Matrigel, PAX6/Nestin by FACS and immunostaining; format: cell-based, human; details: for total H9 hESCs differentiated into PAX6+/Nestin+ cells (FACS): 10 μM inhibitor together with 100 ng/mL MK+DAP

Molecule	NTL structures observed (hESCs (H9 cells))	MAPK activation (ERK1/2 phosphorylation level) (ERK1/2)	further results
Jagged1: Notch ligand (R&D)	never observed	–	–
Cc1cccc(-c2nn(C(=S)Nc3ccccc3)cc2-c2ccnc3ccccc23)n1 [A81-01]	–	–	potency relative to SB431542 (another inhibitor of ALK 5, 4, 7) (ALK 5, 4, 7): more potent
IGF-1: insulin-like growth factor 1 (Peprotech)	never observed	moderate level	signaling through PI3K pathway (phosphorylation level of AKT) (AKT): signal through both the PI3K pathway and the MAPK pathway
O=c1cc(N2CCOCC2)oc2c(-c3ccccc3)cccc12 [LY294002]	–	–	total H9 hESCs differentiated into PAX6+/Nestin+ cells (FACS) (H9 hESCs): ~95%
FGF-2: fibroblast growth factor 2 (NIH/NCI)	–	significantly stronger activation	–
delta-like 4: Notch ligand (R&D)	never observed	–	–
N#CC(=C(/N)Sc1ccccc1N)/C(C#N)=C(\N)Sc1ccccc1N [U0126]	–	–	total H9 hESCs differentiated into PAX6+/Nestin+ cells (FACS) (H9 hESCs): ~95%; PAX6 expression / neuralization in MK+DAP-treated hESC cultures (H9 hESCs; 40 μM inhibitor together with 100 ng/mL MK+DAP): dramatically reduced; also recorded: disruption of neuralization
delta-like 1: Notch ligand (R&D) (protein, UniProt O00548 18-723, looked up) Delta-like protein 1: QVWSSGVFELKLQEFVNKKGLLGNRNCCRGGAGPPPCACRTFFRVCLKHYQASVSPEPPCTYGSAVTPVLGVDSFSLPDGGGADSAFSNPIRFPFGFTWPGTFSLIIEALHTDSPDDLATENPERLISRLATQRHLTVGEEWSQDLHSSGRTDLKYSYRFVCDEHYYGEGCSVFCRPRDDAFGHFTCGERGEKVCNPGWKGPYCTEPICLPGCDEQHGFCDKPGECKCRVGWQGRYCDECIRYPGCLHGTCQQPWQCNCQEGWGGLFCNQDLNYCTHHKPCKNGATCTNTGQGSYTCSCRPGYTGATCELGIDECDPSPCKNGGSCTDLENSYSCTCPPGFYGKICELSAMTCADGPCFNGGRCSDSPDGGYSCRCPVGYSGFNCEKKIDYCSSSPCSNGAKCVDLGDAYLCRCQAGFSGRHCDDNVDDCASSPCANGGTCRDGVNDFSCTCPPGYTGRNCSAPVSRCEHAPCHNGATCHERGHRYVCECARGYGGPNCQFLLPELPPGPAVVDLTEKLEGQGGPFPWVAVCAGVILVLMLLLGCAAVVVCVRLRLQKHRPPADPCRGETETMNNLANCQREKDISVSIIGATQIKNTNKKADFHGDHSADKNGFKARYPAVDYNLVQDLKGDDTAVRDAHSKRDTKCQPQGSSGEEKGTPTTLRGGEASERKRPDSGCSTSKDTKYQSVYVISEEKDECVIATEV	never observed	–	–
Noggin: BMP antagonist, recombinant protein (Peprotech) (protein, UniProt Q13253 28-232, looked up) Noggin: QHYLHIRPAPSDNLPLVDLIEHPDPIFDPKEKDLNETLLRSLLGGHYDPGFMATSPPEDRPGGGGGAAGGAEDLAELDQLLRQRPSGAMPSEIKGLEFSEGLAQGKKQRLSKKLRRKLQMWLWSQTFCPVLYAWNDLGSRFWPRYVKVGSCFSKRSCSVPEGMVCKPSKSVHLTVLRWRCQRRGGQRCGWIPIQYPIISECKCSC	never observed	–	–
MK: 13-kDa cysteine-rich secreted heparin-binding growth and differentiation factor; recombinant protein (Millipore) (protein, UniProt P21741 21-143, looked up) Midkine: VAKKKDKVKKGGPGSECAEWAWGPCTPSSKDCGVGFREGTCGAQTQRIRCRVPCNWKKEFGADCKYKFENWGACDGGTGTKVRQGTLKKARYNAQCQETIRVTKPCTPKTKAKAKAKKGKGKD	–	moderate level	solitary growing hESC colonies directly differentiated into neural tube-like (NTL) structures (hESCs (H9 cells); 100 ng/mL MK, within 6-8 days): 5-10%; total cells differentiated into PAX6+ cells (H9 hESCs; 100 ng/mL MK alone, Matrigel, feeder-free, 6 days, FACS and immunostainings): 20-40%; signaling through PI3K pathway (phosphorylation level of AKT) (AKT): signal through both the PI3K pathway and the MAPK pathway
